From PubChem BioAssay AID1159563 (GlaxoSmithKline (GSK), 2015)
Activity calls are given as the source filed them. How the calls were made is not given here.

The compounds below were run on HepG2 cytotoxicity (assay: human hepatoma cell viability loss – cytotoxicity control (AID 1159563)).

Compound	IC50
CN(C)c1ncc(-c2cncn2CCOc2ccc(Cl)cc2)cn1	> 100 µM (inactive)
COc1ncc(-c2ccc3ncnc(N4CCOCC4)c3c2)cc1NS(C)(=O)=O	> 100 µM (inactive)
N#CN1CC[C@@H](NC(=O)Nc2ccccc2Oc2ccccc2)C1	40 µM
O=C(NC1C(=O)N(c2ccccc2)C1c1cccnc1)c1ccc(Cl)s1 (stereo unspecified)	> 100 µM (inactive)
O=C1CCCCCC1(Cc1cnc[nH]1)c1ccc(Cl)cc1Cl (stereo unspecified)	79 µM
COc1ccc(CNc2cc(C3CC3)nc(-c3nccn3C)n2)cc1	25 µM
CNC(=O)C1Cc2ccccc2N1C(=O)Cc1ccc(OC)cc1 (stereo unspecified)	> 100 µM (inactive)
Cc1[nH]nc2c1C(c1ccc(OCc3ccccc3F)cc1)SCC(=O)N2 (stereo unspecified)	> 100 µM (inactive)
C=CCn1nc([N+](=O)[O-])nc1Oc1ccc(Cl)cc1Cl	> 100 µM (inactive)
Cc1occc1C(=O)Nc1ccccc1C(=O)Nc1nccs1	> 100 µM (inactive)
O=c1ccc2ccc(F)c3c2n1C[C@H]3CN1CCC(NCc2cc3ccccc3o2)CC1	40 µM
CCCc1cc(N)nc(-c2cc(CCC)cc(N)n2)c1	32 µM
O=C(NCCc1cccnc1)c1csc(-c2ccccc2)n1	> 100 µM (inactive)
COc1ccccc1CNc1cc(C2CC2)nc(-c2nccn2C)n1	20 µM
CNc1cc(Cn2c(C(=O)c3cc(C)cc(Cl)c3)c(C(C)C)c(=O)[nH]c2=O)ccn1	> 100 µM (inactive)
O=C(Nc1nc(-c2ccccn2)cs1)N1C[C@H]2C[C@@]2(c2ccccc2)C1	25 µM
Cc1ccc(C)c(CN2C(=O)NC3(CCc4ccccc43)C2=O)c1 (stereo unspecified)	> 100 µM (inactive)
O=C(Nc1ccc(S(=O)(=O)N2CCCC2)cc1)c1ccc([N+](=O)[O-])s1	6.3 µM
O=C(Nc1ccc(C(F)(F)F)cc1)NC1(C(=O)NCc2ccco2)CCCCC1	> 100 µM (inactive)
CC1CCCCN1C(=O)NCCc1coc(-c2ccc(F)cc2)n1 (stereo unspecified)	> 100 µM (inactive)
CCC(c1ccc(F)cc1)n1cncc1-c1cnn(C)c1 (stereo unspecified)	> 100 µM (inactive)

Compound	IC50
Nc1ncnc2c1ncn2[C@@H]1O[C@H](CO)C[C@H]1O	> 100 µM (inactive)
Cc1ccc(S(=O)(=O)Nc2ccc(CN3CCN(C(=O)c4cccc(C#N)c4)CC3)cc2)cc1	> 100 µM (inactive)
CNS(=O)(=O)c1ccccc1Nc1nc(Nc2cc(C)nn2C)ncc1Cl	4 µM
Fc1ccccc1N1C[C@H]2CCN(c3cccnc3)C[C@H]2C1	> 100 µM (inactive)
COc1ccc(C(=O)Nc2ccc(NC(=O)CO)cc2)cc1	> 100 µM (inactive)
Cc1cc2ncn(-c3ccc([N+](=O)[O-])cc3C#N)c2cc1C	> 100 µM (inactive)
c1ccc(Nc2nc3ccccc3[nH]2)nc1	79 µM
O=C(c1ccc(OCCCc2cnc[nH]2)cc1)C1CC1	> 100 µM (inactive)
Oc1c(-c2n[nH]c(CCc3ccccc3)n2)ncc2cccnc12	40 µM
CC(=O)Nc1ccc(-c2noc(CC3CCCN(Cc4cccc(F)c4C)C3)n2)cc1 (stereo unspecified)	> 100 µM (inactive)
Cc1cc(NC(=O)C2CC2)ccc1OC1CCN(Cc2ccco2)CC1	50 µM
N#Cc1ccc(S(=O)(=O)N2CCC3(CCN(c4ccccc4)C3=O)CC2)cc1	> 100 µM (inactive)
O=C(NCCc1ccccc1Cl)c1cccn1-c1cccnc1	> 100 µM (inactive)
CCOc1cc(NCCCN2CCN(C)CC2)c2ncccc2c1	32 µM
O=S(=O)(NCC(c1cccnc1)N1CCN(c2ccc(F)cc2)CC1)c1cccs1 (stereo unspecified)	> 100 µM (inactive)
CCOc1ccc(NC(=O)c2ccc(NC(=O)NC3CCCCC3)cc2)cc1	> 100 µM (inactive)
COc1cc(Cl)c(C)cc1NC(=O)c1ccc([N+](=O)[O-])s1	32 µM
COc1ccc(C(=O)Nc2cc(C(F)(F)F)ccc2N2CCOCC2)c(OC)c1	> 100 µM (inactive)
O=C(CCCn1cnc([N+](=O)[O-])n1)Nc1cccc(Cl)c1	> 100 µM (inactive)
COc1ccc2ncc(F)c(NC(=O)C3(O)CCC(NCc4ccc5c(c4)OCCO5)CC3)c2n1 (stereo unspecified)	50 µM
